Laboratory results reported in patent US20160129005A1, “ADENINE DERIVATIVES HAVING IMMUNOMODULATING ANTI-INFLAMMATORY AND ANALGESIC ACTIVITY” (MEDESTEA RESEARCH & PRODUCTION S.p.A., priority 2011, published 2016).
Where “and” joins values, the source holds several entries; their conditions need not be identical. Equal values may be shown once.

Tests used:
C57/Bl/6 mice = assay: COPD: acute cigarette smoke exposure, BALF; assay type: in vivo, mouse; conditions: 6 mg/kg intratracheal; FIG. 39
Experimental: C57/Bl/6 mice aged 6-8 weeks were exposed to room air or to the smoke of 5 cigarettes/day (Virginia brand with filter; tar 12 mg and nicotine 0.9 mg) for 3 consecutive days. For exposure to smoke, a special cage was used, which permits air exchange with the exterior or with the device that contains the cigarette only due to a mechanical fan, which also allows the smoke to be diluted with the external air (1:8) in order to simulate the situation of a smoker.
Starting on the fourth day, the mice were anaesthetized 30 minutes before exposure to the smoke and were administered 6 mg/kg of […] or vehicle by intratracheal injection. The mice were sacrificed one hour after the end of the treatment and a bronchoalveolar lavage was carried out.

Swiss CD1 mice = assay: CFA thermal hyperalgesia, synergy with opioids
Experimental: We compared the activity of […] with that of the opioids to study its analgesic effect.
Mice of the Swiss CD1 type were given a single intraplantar injection of 30 microlitres of complete Freund adjuvant (CFA) in the right plantar pad. Intraperitoneal injection of […] and/or of morphine (morphine chlorhydrate, Molteni) was administered 24 hours after injection of CFA according to the following scheme:
1. […] 7.5 mg/kg; 2. […] 10 mg/kg; 3. […] 200 mg/kg; 4. […] 50 mg/kg; 5. Morphine 0.4 mg/kg; 6. Morphine 2.5 mg/kg; 7. Morphine 1 mg/kg; 8. Morphine 0.4 mg/kg; 9. Morphine 1 mg/kg+[…] 10 mg/kg; 10. Morphine 0.4 mg/kg+[…] 10 mg/kg; 11. Morphine 1 mg/kg+[…] 10 mg/kg; 12. Morphine 0.4 mg/kg+[…] 10 mg/kg; 13. Morphine 4 mg/kg.
Groups 9-11 and 10-12 have the same doses respectively; they were repeated to confirm the results.
Thermal hyperalgesia was assessed using the Ugo Basile apparatus (Comerio, Italy).
The test was carried out before (baseline values) injection of CFA, after injection of CFA and 0.5, 1, 2, 3, 6 and 12 hours after injecting the drug in the inflamed pad.

murine neuroblastoma = conditions: tissue cultures; Mirkin et al., Cancer Research 47, 1987; cited from earlier work
[1] = tested on: C57BL/6 mice transplanted with BALB/c hearts; assay: Murine heterotopic heart transplant model; assay type: in vivo, mouse
Experimental: The immunosuppressive potential of […] was tested on a heterotopic heart transplant model; hearts of BALB/c mice were transplanted into the abdominal cavity of C57BL/6 mice.
The beats of the heart were measured, twice weekly, by palpation; stopping of beating was regarded as a sign of transplant rejection.
Three different protocols were used for prolonging transplant survival times: the “short-term” protocol ([…] 9 mg/kg daily for 14 days), the “long-term” protocol ([…] 9 mg/kg every day until rejection), and the “Combo” protocol ([…] on alternate days: day 0, 2, 4, 6, 8, 10, 12, 14+Rapamycin 0.1 mg/kg from day 0 to day 10).
In the acute heart transplant models, the hearts of BALB/c were transplanted into the peritoneal cavity of C57BL/6 mice. The control mice invariably reject the transplant in 10 days (Ctrl: MST=7 days, n=12), (FIG. 26). The “short-term” protocol permitted indefinite survival (100 days) in 10 mice out of 12 (n=12; p=0.0001 vs. Ctrl), (FIG. 26). Similarly, the “long-term” protocol permitted indefinite survival in 8 mice out of 10 (n=10; p=0.002 vs Ctrl), and prolonged survival in the remaining 2 (16 days and 25 days; p=0.002 vs. Ctrl), (FIG. 26).
The histological sections of the hearts on day 7 of BALB/c mice, transplanted into a C57BL/6 host, and treated with the “short-term” protocol, were also analysed.

Lewis rats = assay: Acute experimental autoimmune encephalomyelitis (MBP/CFA); assay type: in vivo, rat; conditions: for peak of neurologic damage (neuroclinical score 0-5): vehicle peak 3 (day 13)
Experimental: We investigated whether treatment with […], at the onset of the acute form of experimental autoimmune encephalitis (EAE), the murine model of human multiple sclerosis, could induce a functional recovery.
The motor and sensory deficits were classified according to previously assigned “neuronal” clinical scores.
Adult female Lewis rats (200-250 g) were immunized with an intradermal injection, in the hind limbs, of […] of myelin basic protein (MBP) dissolved in 50 microlitres of emulsified saline solution in 50 microlitres of complete Freund adjuvant (CFA).
Starting from the fifth day post-inoculation, the rats were treated daily with […] (0.1 or 1 mg/kg per os) or with the placebo (vehicle).
The animals were monitored daily until day 21 for clinical symptoms; the range of neuroclinical scores extended from 0 (no neurologic symptom) up to a maximum of 5 (complete paralysis of all legs or death).
Inoculation with the MBP/CFA emulsion led to a very evident loss of body weight; this was not changed by the treatment with Immuflam. The animals were divided into three groups of 15: group 1 Immuflam 0.1 mg/kg, group 2 Immuflam 1 mg/kg, group 3 vehicle. They were all treated daily per os from day 5 until sacrifice.

NOD/scid mice = assay: Graft-versus-host disease (human PBMCs); assay type: in vivo, mouse
Experimental: Two groups of NOD/scid mice of 8-10 weeks were used, and were kept in cages under sterile flow at an SPF animal facility.
On day −1, to avoid residual activity of natural killer cells, the mice were administered an anti-NK antibody intraperitoneally (TMβ-1.1 mg/mouse). On day 0 the mice were irradiated (300 rad) and they were administered, intraperitoneally, 20×10^6 human peripheral blood mononuclear cells (PBMCs), previously isolated. The PBMCs are isolated by means of buffy coat from blood from healthy donors.
On the same day, the mice were treated with […] intraperitoneally at two doses, 10 mg/kg and 20 mg/kg. The treatment was repeated daily for 15 days.
The mice were checked regularly 3 times a week to monitor the weight loss (also as independent variable) and signs of GvHD using a clinical score (0 for weight loss <10%, 1 for 10%-20%, 2 for 20%; hunching (0-2), reactivity (0-2), appearance of the fur (0-2), and skin integrity (0-2)), with a maximum score of 10.

With C=C(C=O)OC(C=O)n1cnc2c(N)ncnc21 (stereo not shown) [2-[1-(6-aminopurin-9-yl)-2-oxoethoxy]prop-2-enal] as the molecule, how does the “immune cells and messengers of inflammation in BALF” value (C57/Bl/6 mice) read?
Its value is “slight finding of immune cells and of messengers of inflammation”.

And the “values of nociception (thermal hyperalgesia)” value (Swiss CD1 mice; IMMUFLAM alone i.p., all the doses tested)?
Its value is “brings back the values of nociception to the baseline values”.

What about the “obsessive-compulsive disorders (behaviour)” value (Swiss CD1 mice; mice treated with IMMUFLAM alone) of the same molecule?
The value was “did not display any behaviour of this kind”.

What about the cytotoxic activity (murine neuroblastoma) of the same molecule?
The cytotoxic activity was “cytotoxic activity”.

What about the “prolonged survival in the remaining 2 mice” value ([1]; long-term protocol) of the same molecule?
Its value is 16 days and 25 days.

What about the anti-FoxP3 labelling ([1]; short-term protocol, day 7) of the same molecule?
The anti-FoxP3 labelling was “did not show significant differences”.

And the “lymphocyte tissue infiltration (haematoxylin-eosin)” value ([1]; short-term protocol, day 7)?
Its value is “absent”.

What about the “presence of mature macrophages” value ([1]; short-term protocol, day 7) of the same molecule?
Its value is “completely inhibited”.

What about the “B and T lymphocytes (anti-B220, anti-CD3)” value ([1]; short-term protocol, day 7, vs controls) of the same molecule?
The value was “appear to decrease numerically”.

What about the vasculopathy score ([1]; short-term protocol, Ctrl=2.0±0.003, p=0.007, FIG. 28C) of the same molecule?
Its vasculopathy score is 0.3±0.3.

What about the “score of degree of infiltration” value ([1]; short-term protocol, Ctrl=2.7±0.3, p=0.01, FIG. 28B) of the same molecule?
Its value is 0.7±0.3.

And the “clinical scores vs vehicle groups” value (Lewis rats; between day 12 and day 15, FIG. 4)?
Its value is “significant differences”.

And the “peak of neurologic damage (neuroclinical score 0-5)” value (Lewis rats; group 1, 0.1 mg/kg per os daily from day 5)?
Its value is 2.3.

And the “peak of neurologic damage (neuroclinical score 0-5)” value (Lewis rats; group 2, 1 mg/kg per os daily from day 5)?
The value was 1.5.

What about the “resistance to GvHD (clinical score)” value (NOD/scid mice; 10 mg/kg and 20 mg/kg i.p. daily for 15 days, FIG. 37) of the same molecule?
The value was “statistically significant, dose-dependent resistance to GvHD”.

What about the survival (NOD/scid mice; 10 and 20 mg/kg i.p., untreated all die within 50 days) of the same molecule?
The survival was “reaching three months from transplant”.
